Data: patent US20180186742A1, “PICOLINAMIDES AS FUNGICIDES” (Dow AgroSciences LLC, priority 2017, published 2018)
Where two headings read alike, the source gives them in different places.

What was measured:
Type in all cases: in vivo
[1] = tested on: Zymoseptoria tritici; experiment: Leaf blotch of wheat (SEPTTR), disease control on wheat seedlings; conditions: low volume application at 121.5 g/H
Summary of the method: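 Z. tritici spores were inoculated onto wheat seedlings (Yuma, first leaf emerged) either before or after treatment. Treatment was an automated spray to run-off of acetone/Triton X-100 water solutions, or a track spray of EC formulations with 0.1% Trycol 5941. Plants were held in dew chambers at 20 °C and then a greenhouse at 20 °C. First-leaf severity (0–100%) was converted to percent control against untreated plants.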

[2] = tested on: Puccinia triticina; experiment: Wheat brown rust (PUCCRT), disease control on wheat seedlings; conditions: low volume application at 121.5 g/H
Summary of the method: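 Compounds in acetone, diluted with nine volumes of water containing 110 ppm Triton X-100, sprayed to run-off on first-leaf Yuma wheat seedlings; track-spray tests used EC formulations with 0.1% Trycol 5941. Puccinia triticina spores applied before or after treatment. Overnight dark dew room at 22° C, 100% humidity, then greenhouse at 24° C.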

[3] = tested on: Phakopsora pachyrhizi; experiment: Asian soybean rust (PHAKPA), disease control on soybean seedlings; conditions: High volume application at 25 ppm
Description: Technical grades of materials were dissolved in acetone, which were then mixed with nine volumes of water containing 0.011% Tween 20. The fungicide solutions were applied onto soybean seedlings using an automated booth sprayer to run-off. All sprayed plants were allowed to air dry prior to further handling.
Soybean plants (variety Williams 82) were grown in soil-less Metro mix, with one plant per pot. Two week old seedlings were used for testing. Plants were inoculated either 3 days prior to or 1 day after fungicide treatments. Plants were incubated for 24 h in a dark dew room at 22° C. and 100% relative humidity then transferred to a growth room at 23° C. for disease to develop. Disease severity was assessed on the sprayed leaves.

[4] = 24 h, 1 Day Protectant, read-out: SEPTTR disease control, 1DP, LV activity
[5] = 72 h, 3 Day Curative, read-out: SEPTTR disease control, 3DC, LV activity
[6] = 24 h, 1 Day Protectant, read-out: PUCCRT disease control, 1DP, LV activity
[7] = 72 h, 3 Day Curative, read-out: PUCCRT disease control, 3DC, LV activity
[8] = 24 h, 1 Day Protectant, read-out: PHAKPA 1DP disease control rating
[9] = 72 h, 3 Day Curative, read-out: PHAKPA 3DC disease control rating
[10] = 24 h, 1 Day Protectant, wheat leaf blotch, read-out: SEPTTR 1DP disease control, LV activity
[11] = 72 h, 3 Day Curative, wheat leaf blotch, read-out: SEPTTR 3DC disease control, LV activity
[12] = 24 h, 1 Day Protectant, wheat brown rust, read-out: PUCCRT 1DP disease control, LV activity
[13] = 72 h, 3 Day Curative, wheat brown rust, read-out: PUCCRT 3DC disease control, LV activity

Row | SMILES | pest or weed control at 121.5 g/ha [1, 4] [%] | pest or weed control at 121.5 g/ha [1, 5] [%] | pest or weed control at 121.5 g/ha [2, 6] [%] | pest or weed control at 121.5 g/ha [2, 7] [%] | pest or weed control at 25 ppm [3, 8] [%] | pest or weed control at 25 ppm [3, 9] [%] | pest or weed control at 121.5 g/ha [1, 10] [%] | pest or weed control at 121.5 g/ha [1, 11] [%] | pest or weed control at 121.5 g/ha [2, 12] [%] | pest or weed control at 121.5 g/ha [2, 13] [%]
1 | COc1ccnc(C(=O)N[C@@H](C)C(=O)O[C@H](C)[C@H](c2ccc(F)cc2C)C(C)C)c1OC(C)=O [Compound 192] | < 0 | > 80 | > 80 | < 80 | > 80 | < 80 |  |  |  | 
2 | COc1ccnc(C(=O)N[C@@H](C)C(=O)O[C@@H](C)[C@H](c2ccc(F)cc2C)C2CCC2)c1OCOC(C)=O [Compound 197] | > 80 | > 80 | > 80 | > 80 | > 80 | > 80 |  |  |  | 
3 | COc1ccnc(C(=O)N[C@@H](C)C(=O)O[C@@H](C)[C@@H](c2ccc(F)cc2C)C2CCCC2)c1OC(C)=O [Compound 180] | < 80 | < 80 | > 80 | < 80 | < 80 | < 80 |  |  |  | 
4 | COc1ccnc(C(=O)N[C@@H](C)C(=O)O[C@@H](C)[C@H](c2ccc(C)cc2F)C(C)C)c1OC(C)=O [Compound 366] |  |  |  |  | > 80 | < 80 | < 80 | < 80 | > 80 | > 80
5 | COc1ccnc(C(=O)N[C@@H](C)C(=O)O[C@@H](C)[C@@H](c2ccc(Cl)cc2Cl)C(C)C)c1OC(C)=O [Compound 370] |  |  |  |  | < 80 | < 80 | < 80 | < 80 | < 80 | < 0
6 | CCC(C)[C@H](c1ccc(F)cc1OC)[C@H](C)OC(=O)[C@H](C)NC(=O)c1nccc(OC)c1OC(C)=O (stereo partly drawn) [Compound 225] | > 80 | > 80 | > 80 | < 80 | > 80 | < 80 |  |  |  | 
7 | COc1ccnc(C(=O)N[C@@H](C)C(=O)O[C@@H](C)[C@H](c2ccc(OC(F)(F)F)cc2)C(C)C)c1OCOC(C)=O [Compound 378] |  |  |  |  | < 80 | < 80 | > 80 | > 80 | > 80 | > 80
8 | COc1ccnc(C(=O)N[C@@H](C)C(=O)O[C@@H](C)[C@H](c2ccc(F)cc2C)C2CCCCC2)c1OC(C)=O [Compound 185] | > 80 | > 80 | > 80 | < 80 | > 80 | < 80 |  |  |  | 
9 | COc1ccnc(C(=O)N[C@@H](C)C(=O)O[C@@H](C)[C@@H](c2ccc(F)cc2F)C(C)C)c1OC(C)=O [Compound 368] |  |  |  |  | < 80 | < 80 | < 80 | < 80 | < 80 | < 0
10 | COc1ccnc(C(=O)N[C@@H](CC(C)C)C(=O)O[C@@H](C)[C@H](c2ccc(F)cc2C)C(C)C)c1OC(C)=O [Compound 349] | < 80 | < 80 | > 80 | < 80 | > 80 | < 80 |  |  |  | 
11 | CCC(C)[C@H](c1ccc(F)cc1C)[C@H](C)OC(=O)[C@H](C)NC(=O)c1nccc(OC)c1OC(C)=O (stereo partly drawn) [Compound 182] | < 80 | > 80 | > 80 | < 80 | < 80 | < 80 |  |  |  | 
12 | COc1ccnc(C(=O)N[C@@H](C)C(=O)O[C@@H](C)[C@H](c2ccccc2)C(C)C)c1OCOC(C)=O [Compound 164] | > 80 | > 80 | > 80 | > 80 | > 80 | < 80 |  |  |  | 
13 | COc1cc(F)ccc1[C@@H](C1CCCCC1)[C@H](C)OC(=O)[C@H](C)NC(=O)c1nccc(OC)c1OC(C)=O [Compound 223] | > 80 | > 80 | < 80 | < 80 | < 80 | < 0 |  |  |  | 
14 | COc1ccnc(C(=O)N[C@@H](C)C(=O)O[C@@H](C)[C@@H](c2ccc(F)cc2C)C2CCCCC2)c1OC(C)=O [Compound 181] | < 80 | > 80 | < 80 | < 80 | < 0 | < 80 |  |  |  | 
15 | COCCC(=O)Oc1c(OC)ccnc1C(=O)N[C@H](C(=O)O[C@@H](C)[C@H](c1ccc(F)cc1C)C(C)C)C(C)C [Compound 351] | > 80 | < 80 | > 80 | < 80 | > 80 | < 80 |  |  |  | 
16 | CCC(CC)[C@H](c1ccc(F)cc1C)[C@H](C)OC(=O)[C@H](C)NC(=O)c1nccc(OC)c1OC(C)=O [Compound 179] | > 80 | > 80 | > 80 | < 0 | < 80 | < 80 |  |  |  | 
17 | COc1ccnc(C(=O)N[C@@H](C)C(=O)O[C@@H](C)[C@@H](c2ccc(F)cc2C)C2CCCCC2)c1OCOC(C)=O [Compound 194] | < 80 | > 80 | < 80 | < 0 | < 80 | < 80 |  |  |  | 
18 | COc1ccnc(C(=O)N[C@@H](C)C(=O)O[C@@H](C)[C@@H](c2ccc(F)cc2C)C2CCC2)c1OC(C)=O [Compound 183] | < 80 | > 80 | < 80 | < 80 | < 80 | < 80 |  |  |  | 
19 | COc1cc(F)ccc1[C@@H](C1CCCC1)[C@H](C)OC(=O)[C@H](C)NC(=O)c1nccc(OC)c1OC(C)=O [Compound 224] | < 80 | < 0 | < 80 | < 80 | < 80 | < 0 |  |  |  | 
20 | COc1ccnc(C(=O)N[C@@H](C)C(=O)O[C@@H](C)[C@H](c2ccc(F)cc2C)C2CCCC2)c1OCOC(C)=O [Compound 195] | > 80 | > 80 | > 80 | > 80 | > 80 | < 80 |  |  |  | 
